Assay: Plasma concentration of Gd-containing contrast agent after injection into jejunal pouch (MRI of plasma samples, standard curve)
Type: in vivo, rat
Details: for concentration of the Gd-containing contrast agent in the plasma: 0.5 ml (0.5 M) into jejunal pouch, mean±SEM
Experimental: Male Wistar rats weighed 250 g to 300 g were used in this experiment. The rats were randomly divided into 2 groups: sham-operation control group (CON) and ischemia/reperfusion group (I/R). Before the experiment, the rats were fasted overnight but allowed to drink water ad lib. The experiment was conducted in a sterile environment. The rats in the two groups were anethesized by intraperitoneal injection of ethyl urethane (1.2 g/kg), and then subjected to abdominal median incision. A jejunal pouch of 10 cm was made at 10 cm from the end of suspensory ligament of duodenum. A 1 ml syringe with a PE-10 catheter was intubated to one end of the jejunal pouch and 0.5 ml of Krebs buffer solution was slowly injected into the pouch from the syringe. The formula of Krebs buffer solution was as follows: 115 mmol/L of NaCl, 8 mmol/L of KCl, 1.25 mmol/L of Ca Cl2, 1.2 mmol/L of MgCl2, 2.0 mmol/L of KH2PO4 and 25 mmol/L of NaHCO3, with a pH of 7.33 to 7.37. […] The CON rats were subjected to abdominal median incision but not subjected to SMA closure. Thereafter, the tissue samples were taken from the rats of these 2 groups for histologic examination and analysis of bacterial translocation (as shown below). […]
In order to determine the rate of the Gd-containing contrast agent transferred from jejunal lumen into systemic circulation, a PE-50 catheter was intubated into left femoral artery before the surgical operation. […] The intensity of signal indication of each plasma sample and of each standard solution was calculated by using a determining device to circle a region of 4 mm^2 in MRI image and to calculate the intensity of signal indication in the region (mm^2). […] The concentration of the Gd-containing contrast agent in the plasma samples at each time point was calculated, using the standard curve. The flow-out rate of the Gd-containing contrast agent flowing from intestinal lumen to systemic circulation at different stages of reperfusion was calculated and expressed in mM/min.

concentration of the Gd-containing contrast agent in the plasma (CON rats (sham operation), 15 minutes): 6 ± 4 µM
concentration of the Gd-containing contrast agent in the plasma (I/R rats (20 min SMA closure), after 15 minutes of reperfusion): 220 ± 44 µM
Structure (SMILES): CNC(=O)CN(CCN(CCN(CC(=O)[O-])CC(=O)NC)CC(=O)[O-])CC(=O)[O-].[Gd+3] [Gd-containing contrast agent]
flow-out rate of the Gd-containing contrast agent from intestinal lumen to systemic circulation, I/R rats versus CON rats (stage of 0-15 minutes of reperfusion): significantly higher than that in CON rats

Source: patent US20090287077A1, “SYSTEM FOR DETECTING FUNCTION OF INTESTINAL BARRIER AND METHOD FOR USING THE SAME” (NATIONAL TAIWAN UNIVERSITY, priority 2008, published 2009)
